Measured values reported in patent US11986471B2, “Compounds and methods of use” (Tango Therapeutics, Inc., priority 2018, dated 2024).

Assays:
[1] = tested on: HAP1 MTAP-intact; assay: SDMA in-cell western assay, HAP1 MTAP-intact cell line; format: cell-based; conditions: Homo sapiens
How it was run: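 HAP1 isogenic pair: endogenous MTAP vs MTAP-null. Readout SDMA by in-cell western; IC50 per line. Ratio ≥3 fold = MTAP-selective.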

[2] = target: T1, PRMT5 (Homo sapiens, UniProt O14744); assay: PRMT5 IC50 assay in the presence of SAM as cofactor; format: biochemical
T1 construct: purchased Viva (custom protein)
How it was run: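 Ki conversion: SAM arm, Ki=IC50/1.5; MTA arm, Ki=IC50/13.5. No-cofactor arm reported as IC50 only. Selectivity expressed as Ki(SAM)/Ki(MTA).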

[3] = target: T1, PRMT5; assay: PRMT5 IC50 assay with no cofactor; format: biochemical
How it was run: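 Human PRMT5 inhibition, IC50 in μM; cofactor varied (SAM / MTA / none).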

[4] = tested on: HAP1 MTAP-deleted; assay: SDMA in-cell western assay, HAP1 MTAP-deleted cell line; format: cell-based; conditions: for IC50: Homo sapiens, HAP1 MTAP-deleted cell line; for MTAP Intact/Deleted Ratio: IC50 ratio HAP1 MTAP-intact / HAP1 MTAP-deleted
How it was run: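 IC50 from SDMA in-cell western; HAP1 line lacking MTAP (null), paired isogenically with MTAP-intact HAP1 expressing endogenous MTAP.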

[5] = target: T1, PRMT5; assay: PRMT5 IC50 assay in the presence of MTA as cofactor; format: biochemical; conditions: for IC50: PRMT5, MTA as cofactor
How it was run: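 Three cofactor conditions are run: SAM-bound, MTA-bound and cofactor-free enzyme. IC50 is read from each; for the SAM and MTA arms it is divided by 1.5 and 13.5 respectively to give Ki.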

[6] = ratio between Ki in the presence of SAM and Ki in the presence of MTA
[7] = ratio between the Ki in the presence of SAM and the Ki in the presence of MTA

T1 sequence (O14744 whole entry): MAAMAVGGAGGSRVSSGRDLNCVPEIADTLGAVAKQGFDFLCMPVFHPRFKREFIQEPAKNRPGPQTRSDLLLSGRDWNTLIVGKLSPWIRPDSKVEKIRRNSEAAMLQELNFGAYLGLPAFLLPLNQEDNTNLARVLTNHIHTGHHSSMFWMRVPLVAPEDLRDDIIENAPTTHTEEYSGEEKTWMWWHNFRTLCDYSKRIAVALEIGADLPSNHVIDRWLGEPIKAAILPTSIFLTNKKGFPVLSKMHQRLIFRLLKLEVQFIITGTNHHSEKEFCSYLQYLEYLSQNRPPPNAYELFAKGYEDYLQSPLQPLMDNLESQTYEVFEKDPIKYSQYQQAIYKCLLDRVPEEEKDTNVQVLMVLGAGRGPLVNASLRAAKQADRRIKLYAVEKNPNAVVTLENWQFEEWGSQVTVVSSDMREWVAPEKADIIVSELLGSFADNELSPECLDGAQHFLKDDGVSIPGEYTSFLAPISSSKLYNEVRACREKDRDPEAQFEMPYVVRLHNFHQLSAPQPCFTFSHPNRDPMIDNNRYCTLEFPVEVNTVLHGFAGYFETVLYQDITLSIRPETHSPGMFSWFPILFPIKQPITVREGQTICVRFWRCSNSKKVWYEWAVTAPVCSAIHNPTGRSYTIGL
T1 sequence (Q9BQA1 whole entry partner): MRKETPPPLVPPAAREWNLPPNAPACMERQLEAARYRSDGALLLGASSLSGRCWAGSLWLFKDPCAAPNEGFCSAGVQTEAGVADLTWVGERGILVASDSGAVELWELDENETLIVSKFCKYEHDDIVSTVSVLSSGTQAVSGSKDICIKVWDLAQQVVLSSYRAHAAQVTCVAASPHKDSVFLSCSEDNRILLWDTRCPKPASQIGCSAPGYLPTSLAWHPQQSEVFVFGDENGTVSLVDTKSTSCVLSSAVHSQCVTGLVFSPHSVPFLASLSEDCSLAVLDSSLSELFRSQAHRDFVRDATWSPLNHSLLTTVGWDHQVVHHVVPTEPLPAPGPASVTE

| SMILES | IC50 [1] [nM] | IC50 [2] [nM] | IC50 ([3]; read-out: No Co-factor IC50) [nM] | IC50 [4] [nM] | MTAP Intact/Deleted Ratio [4] | IC50 [5] [nM] | SAM/MTA Ratio [5, 6] | IC50 [3] [nM] | SAM/MTA Ratio [5, 7] |
| --- | --- | --- | --- | --- | --- | --- | --- | --- | --- |
| CCN1CCN(c2nc(NC3COC3)cc(C(=O)NC[C@H](O)CN3CCc4cc(OCc5cnco5)ccc4C3)n2)CC1 [Compound 353] | 1000 to 10000 | 50 to 500 | 500 to 5000 | 1000 to 10000 | C* (an IC50 ratio of less than 3 fold between the IC50 in the HAP1 MTAP-intact cell line and the HAP1 MTAP-deleted cell line) | 50 to 500 | A (a Ki ratio greater than or equal to 10 fold between the Ki in the presence of SAM and the Ki in the presence of MTA) | – | – |
| CCN1CCN(c2cc(C(=O)NC[C@H](O)CN3CCc4c(ccc(OCc5cnco5)c4Cl)C3)cc(NC3CCC3)n2)CC1 [Compound 299, (S)—N-(3-(5-chloro-6-(oxazol-5-ylmethoxy)-3N-dihydroisoquinolin-2(1H)-yl)-2-hydroxypropyl)-2-(cyclobutylamino)-6-(4-ethylpiperazin-1-yl)isonicotinamide] | ≥ 10000 | 50 to 500 | 500 to 5000 | 1000 to 10000 | B* (an IC50 ratio greater than or equal to 3 fold but lower than 10 fold between the IC50 in the HAP1 MTAP-intact cell line and the HAP1 MTAP-deleted cell line) | 50 to 500 | A (a Ki ratio greater than or equal to 10 fold between the Ki in the presence of SAM and the Ki in the presence of MTA) | – | – |
| Cc1ncoc1COc1ccc2c(c1Cl)CCN(C[C@@H](O)CNC(=O)c1cc(NC3CCCCC3)ncn1)C2 [Compound 501, N-[(2S)-3-[5-chloro-6-[(4-methyl-1,3-oxazol-5-yl)methoxy]-1,2,3,4-tetrahydroisoquinolin-2-yl]-2-hydroxypropyl]-6-(cyclohexylamino)pyrimidine-4-carboxamide] | ≥ 10000 | 50 to 500 | – | ≥ 10000 | C* (an IC50 ratio of less than 3 fold between the IC50 in the HAP1 MTAP-intact cell line and the HAP1 MTAP-deleted cell line) | 50 to 500 | – | ≥ 5000 | A (a Ki ratio greater than or equal to 10 fold between the Ki in the presence of SAM and the Ki in the presence of MTA) |
| Cc1c(OCc2cnco2)ccc2c1CCN(C[C@@H](O)CNC(=O)c1cc(NC3CCN(C(=O)C(C)(C)C)CC3)ncn1)C2 [Compound 523, 6-{[1-(2,2-dimethylpropanoyl)piperidin-4-yl]amino}-N-[(2S)-2-hydroxy-3-{5-methyl-6-[(1,3-oxazol-5-yl)methoxy]-1,2,3,4-tetrahydroisoquinolin-2-yl}propyl]pyrimidine-4-carboxamide] | ≥ 10000 | 50 to 500 | – | ≥ 10000 | C* (an IC50 ratio of less than 3 fold between the IC50 in the HAP1 MTAP-intact cell line and the HAP1 MTAP-deleted cell line) | 50 to 500 | – | ≥ 5000 | A (a Ki ratio greater than or equal to 10 fold between the Ki in the presence of SAM and the Ki in the presence of MTA) |
| CC(=O)N1CCC(Nc2cc(C(=O)NC[C@H](O)CN3CCc4c(C)c(OCc5ocnc5C)cc(F)c4C3)ncn2)CC1 [Compound 618, 6-[(1-acetyl-4-piperidyl)amino]-N-[(2S)-3-[8-fluoro-5-methyl-6-[(4-methyloxazol-5-yl)methoxy]-3,4-dihydro-1H-isoquinolin-2-yl]-2-hydroxy-propyl]pyrimidine-4-carboxamide] | ≥ 10000 | 50 to 500 | – | 1000 to 10000 | B* (an IC50 ratio greater than or equal to 3 fold but lower than 10 fold between the IC50 in the HAP1 MTAP-intact cell line and the HAP1 MTAP-deleted cell line) | 50 to 500 | – | 500 to 5000 | – |
| Cc1ncoc1COc1ccc2c(c1C)CCN(C[C@@H](O)CNC(=O)c1cc(NC3CCC3)nc(N3CCOCC3)c1)C2 [Compound 461, 2-(cyclobutylamino)-N-[(2S)-2-hydroxy-3-{5-methyl-6-[(4-methyl-1,3-oxazol-5-yl)methoxy]-1,2,3,4-tetrahydroisoquinolin-2-yl}propyl]-6-(morpholin-4-yl)pyridine-4-carboxamide] | ≥ 10000 | 50 to 500 | – | 1000 to 10000 | B* (an IC50 ratio greater than or equal to 3 fold but lower than 10 fold between the IC50 in the HAP1 MTAP-intact cell line and the HAP1 MTAP-deleted cell line) | 50 to 500 | – | ≥ 5000 | – |
| CC(C)(C)N1CCN(c2nc(NC3COC3)cc(C(=O)NC[C@H](O)CN3CCc4c(ccc(OCc5cnco5)c4Cl)C3)n2)CC1 [Compound 370, (S)-2-(4-(tert-butyl)piperazin-1-yl)-N-(3-(5-chloro-6-(oxazol-5-ylmethoxy)-3N-dihydroisoquinolin-2(1H)-yl)-2-hydroxypropyl)-6-(oxetan-3-ylamino)pyrimidine-4-carboxamide] | ≥ 10000 | 50 to 500 | ≥ 5000 | 1000 to 10000 | C* (an IC50 ratio of less than 3 fold between the IC50 in the HAP1 MTAP-intact cell line and the HAP1 MTAP-deleted cell line) | 50 to 500 | A (a Ki ratio greater than or equal to 10 fold between the Ki in the presence of SAM and the Ki in the presence of MTA) | – | – |
| CC(C)CC(=O)N1CC(Nc2cc(C(=O)NC[C@H](O)CN3CCc4cc(OCc5cnco5)ccc4C3)ccn2)C1 [Compound 474, N-[(2S)-2-hydroxy-3-[6-(oxazol-5-ylmethoxy)-3,4-dihydro-1H-isoquinolin-2-yl]propyl]-2-[[1-(3-methylbutanoyl)azetidin-3-yl]amino]pyridine-4-carboxamide] | 1000 to 10000 | 50 to 500 | – | 1000 to 10000 | B* (an IC50 ratio greater than or equal to 3 fold but lower than 10 fold between the IC50 in the HAP1 MTAP-intact cell line and the HAP1 MTAP-deleted cell line) | 50 to 500 | – | ≥ 5000 | A (a Ki ratio greater than or equal to 10 fold between the Ki in the presence of SAM and the Ki in the presence of MTA) |
| CC(=O)N1CC(Nc2cc(C(=O)NC[C@H](O)CN3CCc4cc(OCc5cnco5)ccc4C3)nc(N3CCOCC3)n2)C1 [Compound 583] | ≥ 10000 | 50 to 500 | – | 1000 to 10000 | C* (an IC50 ratio of less than 3 fold between the IC50 in the HAP1 MTAP-intact cell line and the HAP1 MTAP-deleted cell line) | 50 to 500 | – | 500 to 5000 | A (a Ki ratio greater than or equal to 10 fold between the Ki in the presence of SAM and the Ki in the presence of MTA) |
| CCC(=O)N1CCN(c2cc(C(=O)NC[C@H](O)CN3CCc4c(ccc(OCc5cnco5)c4Cl)C3)cc(NC3CCC3)n2)CC1 [Compound 570, (S)—N-(3-(5-chloro-6-(oxazol-5-ylmethoxy)-3N-dihydroisoquinolin-2(1H)-yl)-2-hydroxypropyl)-2-(cyclobutylamino)-6-(4-propionylpiperazin-1-yl)isonicotinamide] | ≥ 10000 | 50 to 500 | – | < 1000 | A* (an IC50 ratio greater than or equal to 10 fold between the IC50 in the HAP1 MTAP-intact cell line and the HAP1 MTAP-deleted cell line) | 50 to 500 | – | 500 to 5000 | A (a Ki ratio greater than or equal to 10 fold between the Ki in the presence of SAM and the Ki in the presence of MTA) |
